Measurements published in patent US7223572B1, “Methylophilus methylotrophus having enhanced dihydrodipicolinate synthase and/or aspartokinase activity for L-amino acid production” (Ajinomoto Co., Inc., priority 1999, dated 2007).

System: AK
Test: AK activity of cell-free extracts, with and without L-lysine (method of Stadtman)
Type: biochemical, Methylophilus methylotrophus
Conditions: L-lysine alone
Method: Cell-free extracts were prepared from the Methylophilus methylotrophus AS1 strain containing the RSFD80 plasmid (also referred to as “AS1/RSFD80” hereinafter) and the Methylophilus methylotrophus AS1 strain containing the pRS plasmid (also referred to as “AS1/pRS” hereinafter), and AK activity was measured. The cell-free extracts (crude enzyme solutions) were prepared as follows. The AS1/RSFD80 strain and AS1/pRS strain were each inoculated to 121 production medium of the above composition containing 20 mg/L of streptomycin, cultured at 37° C. for 34 hours with shaking, and then calcium carbonate was removed and cells were harvested.
The bacterial cells obtained as described above were washed with 0.2% KCl under a condition of 0° C., suspended in 20 mM potassium phosphate buffer (pH 7) containing 10 mM MgSO4, 0.8 M (NH4)2SO4 and 0.03 M β-mercaptoethanol, and disrupted by sonication (0° C., 200 W, 10 minutes). […]
The measurement of AK activity was performed in accordance with the method of Stadtman (Stadtman, E. R., Cohen, G. N., LeBras, G., and Robichon-Szulmajster, H., J. Biol. Chem., 236, 2033 (1961)). […] The reaction solution was centrifuged, and absorbance of the supernatant was measured at 540 nm. […] When the enzymatic activity was measured, L-lysine was added to the enzymatic reaction solution at various concentrations to examine degree of inhibition by L-lysine.

NCCCC[C@H](N)C(=O)O [L-lysine]
inhibition of AK originally retained by the AS1 strain: not inhibited
